Reference: US20250082630A1, “METHODS OF TREATING BRAIN TUMOURS AND NEUROBLASTOMAS” (AstraZeneca AB, priority 2021, published 2025)

Assays:
U87 IDH1wt ATRXwt = experiment: Monotherapy treatment, U87 IDH1wt ATRXwt; assay type: cell-based; details: read-out: Compound 20 IC50
Procedure: (§1) To evaluate the activity and potency of the PARP inhibitors described herein in combination with the standard of care chemotherapy Temozolamide (TMZ), ionizing radiation (IR) and the emerging chemotherapy VAL-083, U87, SJG2 and BT245 glioblastoma cells were assayed. Parental U87 cell lines were obtained from the AstraZeneca Global Cell Bank in Alderley Park, UK and the isocistrate dehydrogenase 1 mutant cell line (IDH1 mt R1 32H) was licensed in from ATCC. The SJ-G2 (ATRX mutant) and BT245 (H3K27M mutant) cell lines were obtained from The Research Institute of the McGill University Health Centre, Montreal, QC H4A 3J1, Canada. IDH1R132 mutation was induced in SJG2 cell line to generated isogenic pair (SJG2 IDH1mt and SJG2 IDH1 wt). […]
(§2) For the nuclear count end point assay, cells were fixed for ˜15 minutes (min) by the addition of 50 μl per well of Formaldehyde (Sigma-Aldrich F8775). […] The images were acquired using CellInsight CX5 (Thermo Fisher) and analysed by measuring the total number of hoechst stained nuclei. The number of nuclei (% confluence) of the drug treated wells were normalised to the DMSO control and the growth inhibition was calculated using the combenefit software (Di Veroli et al., 2016).

BRCA2 (−/−) DLD1 cells = experiment: PARP proliferation assay (7 day compound dosing), BRCA2 (−/−) DLD1; assay type: cell-based; details: Homo sapiens, DLD-1, 168 h, read-out: BRCA2 −/− DLD-1 prolif. 7 d IC50
Procedure: DLD1 and BRCA2 (−/−) DLD1 cells were harvested to a density of 5000 cells/ml and 2.5E4 cells/ml respectively in complete media, 40 μL/well seeded into 384-well plates (Greiner, Kremsmunster, Austria; 781090) using a Multidrop Combi then incubated at 37° C., 5% CO2 overnight. Next day (Day 1) using a Multidrop Combi add sytox green (5ul, 2 uM) and saponin (10 ul, 0.25% stock) to a day 0 plate, seal the plate using a black adhesive lid and incubate for >3 h at it. Cells were imaged using Cell Insight (Thermo Fisher) fitted with a 4x objective. Test compounds are added using an Echo 555 and placed in incubator maintained at 37° C., 5% CO2 and incubated for 7 days. On Day 8 add sytox green (5ul, 2 uM) and then saponin (10 ul, 0.25% stock) to plates, seal the plate using a black adhesive lid and incubate for >3 h at it. Read all cells on the Cell Insight with 4× Objective. The rate of proliferation is determined in Genedata by assessing the total cell number output from the Cell Insight for Day 0 and Day 8 plates.

[1] = tested on: BT245 H3K27M paediatric glioma cells; experiment: Combination assay PARP inhibitor with ionizing radiation (colony formation); assay type: cell-based; details: 0.9 Gy, multiple doses of the inhibitor
Procedure: DMSO served as a vehicle control. […] Next, cells were fixed and stained using the Sulforhodamin B acid form (SRB) [Sigma, 341738-5g] reconstituted in 1% Acetic Acid as the stain is added straight after fixation without any washing step which limits cell detachment. Plates with stained colonies were scanned with the GelCount colony counter (Oxford OPTRONIX) at 600 dpi resolution. Colony formation was scored by quantifying the total optical density measured with ImageJ software, using a 24-well plate Region of Interest (ROI) mask (CFU, colony formation units). Data analysis was performed by normalisation on the vehicle treated of the respective plate set as =100. […] In the represented plots error bars are mean±SD.

[2] = tested on: SJ-G2 IDH1 wt and IDH1mt isogenic pairs; experiment: Combination assay PARP inhibitor with TMZ, SJ-G2 isogenic pairs; assay type: cell-based
Procedure: as §1, §2

U87 IDH1 wt = experiment: Combination assay PARP inhibitor with TMZ, U87 IDH1 wt; assay type: cell-based
Procedure: as §1, §2

PARP1 = PARP1 (Homo sapiens (Human), UniProt P09874); experiment: PARP1 trapping; assay type: cell-based; details: data not shown
PARP1, sequence (P09874 whole entry): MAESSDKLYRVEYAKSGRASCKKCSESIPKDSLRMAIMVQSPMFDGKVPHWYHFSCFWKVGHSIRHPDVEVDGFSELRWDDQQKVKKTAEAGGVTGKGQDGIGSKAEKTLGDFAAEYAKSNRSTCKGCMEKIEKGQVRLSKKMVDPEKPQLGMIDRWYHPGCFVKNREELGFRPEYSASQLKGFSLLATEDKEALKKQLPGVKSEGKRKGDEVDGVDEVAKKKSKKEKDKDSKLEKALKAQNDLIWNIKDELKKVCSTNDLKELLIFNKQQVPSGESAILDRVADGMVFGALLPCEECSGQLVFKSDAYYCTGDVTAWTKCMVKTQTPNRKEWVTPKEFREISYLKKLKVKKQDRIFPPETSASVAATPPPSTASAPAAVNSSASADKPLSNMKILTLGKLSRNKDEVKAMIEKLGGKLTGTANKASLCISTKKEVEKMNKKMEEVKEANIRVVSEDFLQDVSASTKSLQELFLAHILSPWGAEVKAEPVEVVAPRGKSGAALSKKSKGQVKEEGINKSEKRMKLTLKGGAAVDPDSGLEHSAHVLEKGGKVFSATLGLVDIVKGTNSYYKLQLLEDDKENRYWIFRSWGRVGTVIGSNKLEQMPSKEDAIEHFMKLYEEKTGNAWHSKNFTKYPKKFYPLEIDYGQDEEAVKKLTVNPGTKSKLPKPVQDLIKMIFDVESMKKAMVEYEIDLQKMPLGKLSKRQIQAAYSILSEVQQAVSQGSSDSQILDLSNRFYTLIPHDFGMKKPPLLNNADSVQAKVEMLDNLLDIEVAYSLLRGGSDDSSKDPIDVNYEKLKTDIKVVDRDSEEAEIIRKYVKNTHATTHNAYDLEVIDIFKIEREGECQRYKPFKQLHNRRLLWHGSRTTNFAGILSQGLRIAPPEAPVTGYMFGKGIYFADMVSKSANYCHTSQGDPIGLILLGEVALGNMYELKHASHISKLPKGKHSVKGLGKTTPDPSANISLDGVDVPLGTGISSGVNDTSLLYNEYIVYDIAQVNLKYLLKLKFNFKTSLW

SJ-G2 IDH1mt ATRXmt = experiment: cells; details: SJ-G2, read-out: Compound 20 IC50
Procedure: as §1, §2

SJ-G2 IDH1wt ATRXmt = experiment: Monotherapy treatment, SJ-G2 IDH1wt ATRXmt; assay type: cell-based
Procedure: DMSO served as a vehicle control.
The plates were washed again and PBS was added.

[3] = tested on: U87 IDH1 wt and IDH1 mt isogenic pairs; experiment: Combination assay PARP inhibitor with VAL-083, U87 isogenic pairs; assay type: cell-based
Procedure: as §1, §2

CNC(=O)c1ccc(N2CCN(Cc3ccc4nc(C)c(=O)[nH]c4c3F)CC2)c(F)n1 [Example 20, 6-fluoro-5-[4-[(5-fluoro-2-methyl-3-oxo-4H-quinoxalin-6-yl)methyl]piperazin-1-yl]-N-methyl-pyridine-2-carboxamide]
IC50 (U87 IDH1wt ATRXwt): > 100 µM | IC50 (BRCA2 (−/−) DLD1 cells): 0.008 µM | combination effect with ionizing radiation [1]: enhanced combination benefit | lowest PARP inhibitor concentration significantly enhancing the TMZ effect [2]: 10 nM | concentration at which Compound 20 synergises with TMZ (U87 IDH1 wt): 10 µM | lowest concentration with potent trapping of PARP1 (PARP1): 10 nM | IC50 (SJ-G2 IDH1mt ATRXmt): 1.75 µM | IC50 (SJ-G2 IDH1wt ATRXmt; SJ-G2, read-out: Compound 20 IC50): 2.34 µM | higher sensitivity compared to the ATRXwt U87 model (SJ-G2 IDH1wt ATRXmt; SJ-G2 ATRXmt model, monotherapy): about 40 fold | combination effect with VAL-083 [3]: synergises with VAL-083
